The compounds below were run against PARP7 (Homo sapiens (Human), UniProt Q7Z3E1) (assay: Enzymatic assay for inhibition of PARP7: TR-FRET displacement of biotinylated Probe A from the TIPARP active site). Conditions: Table A-1.
Format: binding
Method in brief: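 Titrated compounds compete with the biotinylated probe; after an additional 30 min incubation at 25° C, time-delayed fluorescence (90 μs) is measured. Inhibition curves use a Hill coefficient that normally floats but may be held at 1.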

Sequence of PARP7 (Q7Z3E1 whole entry): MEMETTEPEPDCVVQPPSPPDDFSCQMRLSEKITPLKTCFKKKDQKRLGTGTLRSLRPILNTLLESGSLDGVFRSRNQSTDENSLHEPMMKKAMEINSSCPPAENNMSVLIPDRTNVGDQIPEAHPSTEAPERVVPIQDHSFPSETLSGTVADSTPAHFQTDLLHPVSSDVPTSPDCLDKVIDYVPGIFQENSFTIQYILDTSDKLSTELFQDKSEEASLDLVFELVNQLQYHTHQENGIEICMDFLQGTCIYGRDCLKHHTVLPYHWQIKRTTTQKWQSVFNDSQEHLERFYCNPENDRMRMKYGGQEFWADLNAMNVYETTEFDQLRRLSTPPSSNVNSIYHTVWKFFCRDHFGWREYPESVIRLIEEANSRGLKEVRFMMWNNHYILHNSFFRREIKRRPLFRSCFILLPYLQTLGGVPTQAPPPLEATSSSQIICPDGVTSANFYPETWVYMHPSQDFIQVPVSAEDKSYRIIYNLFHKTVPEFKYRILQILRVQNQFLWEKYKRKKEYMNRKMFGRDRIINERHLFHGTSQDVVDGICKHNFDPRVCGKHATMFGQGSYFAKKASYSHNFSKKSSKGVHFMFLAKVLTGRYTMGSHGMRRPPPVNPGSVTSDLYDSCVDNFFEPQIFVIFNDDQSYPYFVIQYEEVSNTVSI

Row | SMILES | IC50 [nM]
1 | C[C@@H](COCCC(=O)N1CCC(Oc2ncc(C(F)(F)F)cn2)C1)Nc1cn[nH]c(=O)c1C(F)(F)F (stereo partly drawn) [Example 716, 5-(((2S)-1-(3-Oxo-3-(3-((5-(trifluoromethyl)pyrimidin-2-yl)oxy)pyrrolidin-1-yl)propoxy)propan-2-yl)amino)-4-(trifluoromethyl)pyridazin-3(2H)-one] | < 100
2 | C[C@@H](COCCC(=O)N1CCC(Oc2ncc(C#N)s2)C1)Nc1cn[nH]c(=O)c1C(F)(F)F (stereo partly drawn) [Example 718, 2-((1-(3-((S)-2-((6-Oxo-5-(trifluoromethyl)-1,6-dihydropyridazin-4-yl)amino)propoxy)propanoyl)pyrrolidin-3-yl)oxy)thiazole-5-carbonitrile] | < 100
3 | C[C@@H](COCCC(=O)N1CCC(Oc2ncc(C(F)(F)F)s2)C1)Nc1cn[nH]c(=O)c1C(F)(F)F (stereo partly drawn) [Example 720, 5-(((2S)-1-(3-Oxo-3-(3-((5-(trifluoromethyl)thiazol-2-yl)oxy)pyrrolidin-1-yl)propoxy)propan-2-yl)amino)-4-(trifluoromethyl)pyridazin-3(2H)-one] | < 100
4 | C[C@@H](COCCC(=O)N1CCN(c2nnc(C(F)(F)F)s2)CC1)Nc1cn[nH]c(=O)c1C(F)(F)F [Example 722, (S)-5-((1-(3-Oxo-3-(4-(5-(trifluoromethyl)-1,3,4-thiadiazol-2-yl)piperazin-1-yl)propoxy)propan-2-yl)amino)-4-(trifluoromethyl)pyridazin-3(2H)-one] | < 100
5 | O=c1[nH]ncc(OCCOCCS(=O)(=O)N2CCN(c3ncc(C(F)(F)F)cn3)CC2)c1C(F)(F)F [Example 724, 4-(Trifluoromethyl)-5-(2-(2-((4-(5-(trifluoromethyl)pyrimidin-2-yl)piperazin-1-yl)sulfonyl)ethoxy)ethoxy)pyridazin-3(2H)-one] | < 100
6 | C[C@@H](COCCS(=O)(=O)N1CCN(c2ncc(C(C)(C)C)cn2)CC1)Nc1cn[nH]c(=O)c1C(F)(F)F [Example 725, (S)-5-((1-(2-((4-(5-(Tert-butyl)pyrimidin-2-yl)piperazin-1-yl)sulfonyl)ethoxy)propan-2-yl)amino)-4-(trifluoromethyl)pyridazin-3(2H)-one] | < 100

Second part, the compound after the results:

Row | IC50 [nM] | SMILES
7 | < 100 | [2H]C1([2H])N(C(=O)CCOC[C@H](C)Oc2cn[nH]c(=O)c2C(F)(F)F)C([2H])([2H])C([2H])([2H])N(c2ncc(Cl)cn2)C1([2H])[2H] [Example 715, (S)-5-((1-(3-(4-(5-Chloropyrimidin-2-yl)piperazin-1-yl-2,2,3,3,5,5,6,6-d8)-3-oxopropoxy)propan-2-yl)oxy)-4-(trifluoromethyl)pyridazin-3(2H)-one]
8 | < 100 | C[C@@H](COCCC(=O)N1CCC(Nc2ncc(C#N)s2)C1)Nc1cn[nH]c(=O)c1C(F)(F)F (stereo partly drawn) [Example 717, 2-((1-(3-((S)-2-((6-Oxo-5-(trifluoromethyl)-1,6-dihydropyridazin-4-yl)amino)propoxy)propanoyl)pyrrolidin-3-yl)amino)thiazole-5-carbonitrile]
9 | < 100 | C[C@@H](COCCC(=O)N1CCN(c2ncc(Cl)s2)CC1)Nc1cn[nH]c(=O)c1C(F)(F)F [Example 721, (S)-5-((1-(3-(4-(5-Chlorothiazol-2-yl)piperazin-1-yl)-3-oxopropoxy)propan-2-yl)amino)-4-(trifluoromethyl)pyridazin-3(2H)-one]
10 | < 100 | C[C@@H](COCCC(=O)N1CCN(c2ncc(Cl)s2)CC1)Oc1cn[nH]c(=O)c1C(F)(F)F [Example 723, (S)-5-((1-(3-(4-(5-Chlorothiazol-2-yl)piperazin-1-yl)-3-oxopropoxy)propan-2-yl)oxy)-4-(trifluoromethyl)pyridazin-3(2H)-one]
11 | < 100 | C[C@@H](COCCS(=O)(=O)N1CCN(c2ncc(C(F)(F)F)s2)CC1)Nc1cn[nH]c(=O)c1C(F)(F)F [Example 726, (S)-4-(Trifluoromethyl)-5-((1-(2-((4-(5-(trifluoromethyl)thiazol-2-yl)piperazin-1-yl)sulfonyl)ethoxy)propan-2-yl)amino)pyridazin-3(2H)-one]
